In US7595300B2, “7-quinolyl ketolide antibacterial agents” (priority 2005, dated 2009):
Values after ≈ are worked out from the molar mass of the structure shown. Where two headings read alike, the source gives them in different places.

Assays:
[1] = Skin penetration of topical formulations, Franz static diffusion cells; format: in vitro ADME, human; conditions: first experiment, dibutyl sebacate
Experimental: The penetration of compound (III) formulated in various vehicles into human skin was determined. Franz static diffusion cells (15 mm diameter orifice, o-ring joint) were mounted on 9-cell manifolds and maintained at a constant temperature by use of re-circulating water baths set at 32° C. These cells have an opening with a nominal area of 1.77 cm^2 and a receptor compartment with a volume ranging between 12 to 14 ml. Each diffusion cell was assembled by placing a disk shaped section of excised human skin (obtained from elective surgery) over the orifice of the receptor (bottom) compartment. A Teflon® O-ring was placed on top of the skin before the donor cap was added (top compartment). This diffusion area was then secured in place by a pinch clamp, ensuring an adequate seal between the donor and receptor compartments. The joint between the donor and receptor compartments of each cell was wrapped with Parafilm® (American Can Company) to prevent evaporation of the receptor phase. Each cell was then filled with the receptor phase consisting of phosphate buffered saline with 0.1% sodium azide and 4% bovine serum albumin (w/w/w) at 32° C. Any air bubbles present under the tissue were removed prior to dosing. […]
Approximately 10 mg/cm^2 of each formulation was dosed onto the tissue surfaces of five cells. […] Samples were analyzed for drug content by LC/MS-MS. […]

[2] = tested on: Streptococcus pneumoniae ATCC 6303; test: rat lower respiratory tract infection (lung pneumonia) model; format: in vivo; conditions: for Log CFU/g (avg, n = 8): rat lungs, 12 hours after the last dose
Experimental: The in vivo efficacy of compounds (II) and (III) were evaluated in a rat lower respiratory tract infection model. Groups of 8 rats were infected intratracheally with 0.5 mL containing 10^6 CFUs of Streptococcus pneumoniae ATCC 6303 in 5% hog gastric mucin. Compounds dissolved in ethanol were administered by oral gavage daily over 3 days starting 18 hours post-inoculation. Lungs were aseptically removed from survivors 12 hours after the last dose and examined for visible signs of infection, then homogenized in sterile PBS and plated for determination of CFUs by log plating on Columbia agar-nalidixic acid plates.

P. acnes = test: MIC, NCCLS Reference Agar Dilution Method for anaerobic bacteria; format: cell-based, Propionibacterium acnes
Experimental: Minimum inhibitory concentrations (“MICs”) were determined by the NCCLS Reference Agar Dilution Method (M11-A5, Vol. 21, No. 2) for anaerobic bacteria. A panel of 84 antibiotic-susceptible and resistant strains of Propionibacteria from distinct geographic locations were selected. Following revival from frozen stocks, each strain was purity plated onto Wilkins Chalgren Agar, pH 7.2 (Oxoid, UK), and the appropriate antibiotic resistance/susceptibility phenotype was confirmed by antibiotic disc testing. Each strain was subjected to an agar dilution MIC assay. […] The inocula for each batch of strains were prepared from 7-day old Wilkins Chalgren Agar plate cultures by resuspension of colonies in Wilkins Chalgren Anaerobe broth, pH 7.2 (Oxoid, UK) to an optical density (OD600) of 0.2±0.02. The inoculum (1.0-2.0 μL) for each strain was applied to a Wilkins Chalgren Agar MIC plate in a grid pattern using a Multipoint Inoculator (Denley, UK). All agar plates were incubated at 37° C. for 3 days under anaerobic conditions in AnaeroPack 7 liter rectangular jars (Mitsubishi Gas Chemical Company, Inc., Japan).

Streptococcus pneumoniae = test: MIC, NCCLS broth microdilution, respiratory pathogens; format: cell-based; conditions: S. pneumoniae
Experimental: (§1) Minimum inhibitory concentrations (“MICs”) were determined by the NCCLS broth microdilution procedure for susceptibility testing for bacteria that grow aerobically (National Committee for Clinical Laboratory Standards, 1997. Methods for dilution antimicrobial susceptibility tests for bacteria that grow aerobically, 4th ed. Approved standard. NCCLS Document M7-A4. National Committee for Clinical Laboratory Standards, Villanova, Pa.). Stock solutions were prepared on the day of the test and appropriate aliquots were added to cation adjusted Mueller-Hinton broth (CAMHB, DIFCO) or Haemophilus test media. Two-fold serial dilutions were prepared and added to wells in microtiter plates. Final test concentrations ranged from 8 to 0.004 ug/ml. Broth cultures of bacteria inoculated from growth on overnight plates for all test bacteria except Streptococcus pneumoniae and Haemophilus influenzae were incubated at 35° C. and then adjusted to the Kirby Bauer standard and diluted in CAMHB to achieve a final inoculum concentration of approximately 5×10^5 CFU/ml. Inocula for S. pneumoniae and H. influenzae were prepared by directly suspending colonies from an overnight plate, adjusting the turbidity and diluting as above. S. pneumoniae media was supplemented with 3% lysed horse blood. All plates were incubated in ambient air at 35° C. for 20-24 h for S. pneumoniae and Haemophilus influenzae and 16-20 h for all other bacteria.

S. pyogenes = test: as above; format: cell-based; conditions: Streptococcus pyogenes
Experimental: as §1

Haemophilus influenzae = test: as above; format: cell-based; conditions: H. influenzae
Experimental: as §1

M. catarrhalis = test: as above; format: cell-based; conditions: Moraxella catarrhalis
Experimental: as §1

[3] = genotype sensitive, read-out: MIC50
[4] = genotype sensitive, read-out: MIC90

With CC1CC(N(C)C)C(O)C(O[C@@H]2[C@@H](C)C(=O)[C@](C)(F)C(=O)O[C@H](CCF)[C@@]3(C)OC(=O)N[C@@H]3[C@@H](C)C(=O)[C@H](C)C[C@@]2(C)OC/C=C/c2ccc3cccnc3c2)O1 (stereo partly drawn) [Compound (III), 6-O-(1-(7-quinolyl)-3-propenyl)-11-amino-11-deoxy-3-(descladinosyl)-3-oxo-2,15-difluoroerythromycin A-11,12-cyclic carbamate] the Highest dermal penetration [1] was 5.7 % of applied dose, the “Log CFU/g (avg, n = 8)” value ([2]; 0.5 mg/kg oral gavage daily over 3 days) was 3.9 Log CFU/g and the “Log CFU/g (avg, n = 8)” value ([2]; 2.5 mg/kg oral gavage daily over 3 days) was 3.0 Log CFU/g. For the same compound, the “% survivors” value ([2]; rat, 0.5 mg/kg oral gavage daily over 3 days) was 100%, the “% survivors” value ([2]; rat, 2.5 mg/kg oral gavage daily over 3 days) was 100% and the “reducing the bacterial load in the rat lungs and increasing survival relative to control animals” value ([2]; rat, oral gavage daily over 3 days) was “efficacious”. For the same compound, the MIC range (P. acnes; marker RNA 1058, phenotype TetR) was 0.06 to 1 µg/mL, the MIC range (P. acnes; marker RNA 1058/2058, phenotype TetR, EryR) was 1 to 2 µg/mL and the MIC range (P. acnes; marker RNA 1058/2059, phenotype TetR, EryR) was 0.5 µg/mL (≈ 0.623 µM). For the same compound, the MIC range (P. acnes; marker RNA 2057, phenotype EryR) was 0.06 µg/mL (≈ 0.0748 µM), the MIC range (P. acnes; marker RNA 2058, phenotype EryR) was 0.125 to 2 µg/mL and the MIC range (P. acnes; marker RNA 2058, phenotype EryR, TetR) was 0.06 to 1 µg/mL. For the same compound, the MIC range (P. acnes; marker RNA 2059, phenotype EryR) was 0.125 to 2 µg/mL, the MIC range (P. acnes; marker ermX, phenotype EryR) was 32 to 128 µg/mL and the MIC range (P. acnes; marker none, phenotype none) was 0.06 µg/mL (≈ 0.0748 µM). For the same compound, the MIC range (P. acnes; marker unknown, phenotype ClindR) was 0.06 µg/mL (≈ 0.0748 µM), the MIC50 (Streptococcus pneumoniae; 20 h, genotype ermB + mef) was 0.5 µg/mL and the MIC50 (Streptococcus pneumoniae; genotype ermB) was 0.12 µg/mL (≈ 0.15 µM). The MIC90 (Streptococcus pneumoniae; genotype ermB) was 0.12 µg/mL (≈ 0.15 µM), the MIC90 (Streptococcus pneumoniae; genotype ermB + mef) was 1 µg/mL and the MIC50 (Streptococcus pneumoniae; genotype mef, read-out: MIC50) was 0.25 µg/mL (≈ 0.312 µM). It also gave an MIC90 (Streptococcus pneumoniae; genotype mef, read-out: MIC90) of 0.25 µg/mL (≈ 0.312 µM), an MIC50 (Streptococcus pneumoniae; [3]) of 0.03 µg/mL (≈ 0.0374 µM) and an MIC90 (Streptococcus pneumoniae; [4]) of 0.03 µg/mL (≈ 0.0374 µM). The MIC50 (S. pyogenes; genotype ermB) was 0.12 µg/mL (≈ 0.15 µM), the MIC90 (S. pyogenes; genotype ermB) was 1 µg/mL (≈ 1.25 µM) and the MIC50 (S. pyogenes; genotype mef, read-out: MIC50) was 0.12 µg/mL (≈ 0.15 µM). It also gave an MIC90 (S. pyogenes; genotype mef, read-out: MIC90) of 0.12 µg/mL (≈ 0.15 µM), an MIC50 (S. pyogenes; [3]) of 0.06 µg/mL (≈ 0.0748 µM) and an MIC90 (S. pyogenes; [4]) of 0.06 µg/mL (≈ 0.0748 µM). For the same compound, the MIC50 (Haemophilus influenzae; resistant) was greater than 8 µg/mL, the MIC90 (Haemophilus influenzae; resistant) was greater than 8 µg/mL and the MIC50 (Haemophilus influenzae; sensitive) was 2 µg/mL (≈ 2.49 µM). The MIC90 (Haemophilus influenzae; sensitive) was 4 µg/mL (≈ 4.99 µM), the MIC50 (M. catarrhalis) was 0.12 µg/mL (≈ 0.15 µM) and the MIC90 (M. catarrhalis) was 0.12 µg/mL (≈ 0.15 µM).
